# Measured values: publication PMC4648318, “A novel 2,5-diaminopyrimidine-based affinity probe for Bruton’s tyrosine kinase” (Scientific Reports, 2015)
# Several values for one entry are separate records, joined by “and”; a condition that tells them apart may be missing. Equal values may be shown once. Entries after “also recorded” stand apart in the source; their conditions may differ. Where a name gives a salt, the structure may show the parent alone.
# Tests used:
# Btk [1] = biological target: T1, Btk (Homo sapiens, UniProt Q06187); assay: Kinase enzymology assay (HTRF KinEase); assay type: biochemical; parameters: purchased Carna Biosciences; details: enzymatic assay; values marked * are a single run of duplicates, all others are means of two individual measurements
# Procedure: Kinases were purchased from Carna Biosciences. Kinase enzymology assays were performed according to the protocols specified for the HTRF® KinEase™ assays sold by Cisbio Bioassays.
# Target sequence in this assay (Q06187 whole entry): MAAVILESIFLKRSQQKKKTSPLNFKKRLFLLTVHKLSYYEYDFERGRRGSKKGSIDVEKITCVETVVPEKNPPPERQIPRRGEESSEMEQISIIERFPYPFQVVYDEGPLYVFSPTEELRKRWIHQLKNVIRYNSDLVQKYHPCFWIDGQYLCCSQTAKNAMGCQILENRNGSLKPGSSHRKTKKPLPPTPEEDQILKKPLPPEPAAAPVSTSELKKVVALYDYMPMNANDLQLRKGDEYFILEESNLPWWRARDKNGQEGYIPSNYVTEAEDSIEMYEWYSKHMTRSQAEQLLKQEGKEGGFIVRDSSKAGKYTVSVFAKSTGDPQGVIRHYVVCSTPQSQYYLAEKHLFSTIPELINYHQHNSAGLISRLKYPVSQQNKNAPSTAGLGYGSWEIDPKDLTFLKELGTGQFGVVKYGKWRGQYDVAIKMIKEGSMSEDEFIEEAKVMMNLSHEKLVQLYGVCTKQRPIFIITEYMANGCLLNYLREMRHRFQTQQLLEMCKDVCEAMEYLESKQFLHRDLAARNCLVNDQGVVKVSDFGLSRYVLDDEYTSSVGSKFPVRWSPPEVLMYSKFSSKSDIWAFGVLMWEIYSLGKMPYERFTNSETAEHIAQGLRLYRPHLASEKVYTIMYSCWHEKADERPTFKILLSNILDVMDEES
# Btk [2] = biological target: T1, Btk; assay: Competition assay: blocking of probe 14 labeling of Btk in cells; assay type: cell-based; details: inhibitor 1 μM for 1 hour, then 0.5 μM probe 14 for 2 hours, OCI-Ly7 cells
# Procedure: Competition assay. LY7 cells were preincubated with the compounds (1 μM) for 1 h before labeling with probe 14 under the proper time and concentration conditions. Then, the cells were lysed and analyzed as described above. Supplementary figure S1: competition experiment in OCI-Ly7 cells (a) and Jurkat cells (b). 1.5×10^6 cells were pre-incubated with compounds for 1h at 1μM before labeling with probe 14 for 2h at 0.5μM. Then, lysed, quantified and analyzed by SDS/PAGE and fluorescent gel scanning (fluorescence, CY2).
# Target sequence in this assay (Q06187 whole entry): as above
# Btk [3] = biological target: T1, Btk; assay: Kinetic study of Btk inhibitors (kinact/Ki, HTRF KinEase); assay type: biochemical; parameters: purchased Carna Biosciences; details: 0.5 nM Btk, room temperature, preincubation 0-20 min
# Procedure: The kinase assays were performed at room temperature. The compounds with serial dilution in DMSO were added into reaction buffer with 0.5 nM Btk, incubating with different periods of time (0 min, 4 min, 8 min, 12 min, 16 min, and 20 min). Enzyme reaction was started by adding ATP and substrate to the reaction mixture. The enzyme activity was measured with HTRF® KinEase™ assays. The data analysis was guided by the book, Enzyme Kinetics by Hans Bisswanger[16].
# Target sequence in this assay (Q06187 whole entry): as above
# Btk [4] = biological target: T1, Btk; assay: Cellular labeling of Btk by probe 14 in OCI-Ly7 cells; assay type: cell-based
# Procedure: Labeling of Btk by probe 14. A total of 1.5 × 10^6 cells were treated with probe 14 at 1 μM for different lengths of times (5 min, 10 min, 20 min, 30 min, 1 h, 2 h, 3 h, or 4 h), washed, lysed in cell lysis buffer (Beyotime) containing 1 mM PMSF and 10 mM NaF (Invitrogen), and centrifuged. The sample protein concentrations were quantified using a NanoDrop 2000 spectrophotometer, and the samples were adjusted to the same concentration then analyzed by SDS/PAGE and fluorescent gel scanning (fluorescence, CY2). The gel was then blotted, and the total Btk levels were detected by a standard Western blot. The concentration course labeling procedure was similar to that for the time course labeling.
# Target sequence in this assay (Q06187 whole entry): as above
# Jurkat cells = assay: Cellular labeling by probe 14 in Jurkat cells (T-cell line that does not express Btk); assay type: cell-based; details: T-cell line without Btk (Supplementary Figure S1)
# Procedure: Supplementary figure S1: competition experiment in OCI-Ly7 cells (a) and Jurkat cells (b). 1.5×10^6 cells were pre-incubated with compounds for 1h at 1μM before labeling with probe 14 for 2h at 0.5μM. Then, lysed, quantified and analyzed by SDS/PAGE and fluorescent gel scanning (fluorescence, CY2).
# Btk [5] = biological target: T1, Btk; assay: Recombinant protein labeling assay; assay type: binding; details: recombinant Btk (0.5 μg)
# Source text: […] The gel was then blotted, and the total Btk levels were detected by standard […]. The concentration course labeling procedure was similar to that for the time course labeling.
# Target sequence in this assay (Q06187 whole entry, species assumed): as the sequence (Q06187 whole entry) above
IC50 (Btk [1]),Structure (SMILES),also measured
16.7 nM,C=CC(=O)NCC(=O)Nc1cccc(Nc2ncc(Nc3cc(NC(=O)c4cccc(C(F)(F)F)c4)ccc3C)cn2)c1 [Compound 1],–
–,C=CC(=O)Nc1cccc(Nc2ncc(NC(=O)c3cc(NC(=O)c4cccc(C(F)(F)F)c4)ccc3C)cn2)c1 [Compound 2],Blocking of the labeling of Btk by probe 14 (Btk [2]): effectively blocked; also recorded: completely competed off
26.7 ± 5.74 nM,C=CC(=O)NCCC(=O)Nc1cccc(Nc2ncc(NC(=O)c3cc(NC(=O)c4cccc(C(F)(F)F)c4)ccc3C)cn2)c1 [Compound 3],–
52.9 ± 0.95 nM,C=CC(=O)N1CCC[C@H]1C(=O)Nc1cccc(Nc2ncc(NC(=O)c3cc(NC(=O)c4cccc(C(F)(F)F)c4)ccc3C)cn2)c1 [Compound 4],–
44 ± 8.13 nM,C=CC(=O)N[C@@H](C)C(=O)Nc1cccc(Nc2ncc(NC(=O)c3cc(NC(=O)c4cccc(C(F)(F)F)c4)ccc3C)cn2)c1 [Compound 5],–
> 100 nM and 114 nM,"C=CC(=O)N[C@@H](CC(C)C)C(=O)Nc1cccc(Nc2ncc(NC(=O)c3cc(NC(=O)c4cccc(C(F)(F)F)c4)ccc3C)cn2)c1 [Compound 6, (S)-N-(2-((3-(2-acrylamido-4-methylpentanamido)phenyl)amino)pyrimidin-5-yl)-2-methyl-5-(3-(trifluoromethyl)benzamido)benzamide]",–
> 100 nM and 140 nM,C=CC(=O)N[C@@H](Cc1ccccc1)C(=O)Nc1cccc(Nc2ncc(NC(=O)c3cc(NC(=O)c4cccc(C(F)(F)F)c4)ccc3C)cn2)c1 [Compound 7],–
27.4 ± 2.6 nM,C=CC(=O)N[C@@H](CO)C(=O)Nc1cccc(Nc2ncc(NC(=O)c3cc(NC(=O)c4cccc(C(F)(F)F)c4)ccc3C)cn2)c1 [Compound 8],–
15 to 20 nM and 19.8 nM,C=CC(=O)N[C@@H](CC(N)=O)C(=O)Nc1cccc(Nc2ncc(NC(=O)c3cc(NC(=O)c4cccc(C(F)(F)F)c4)ccc3C)cn2)c1 [Compound 9],–
15 to 20 nM and 14.7 nM,C=CC(=O)N[C@@H](CCC(=O)O)C(=O)Nc1cccc(Nc2ncc(NC(=O)c3cc(NC(=O)c4cccc(C(F)(F)F)c4)ccc3C)cn2)c1 [Compound 10],–
63 nM and 62.8 nM,"C=CC(=O)N[C@@H](CCCCN)C(=O)Nc1cccc(Nc2ncc(NC(=O)c3cc(NC(=O)c4cccc(C(F)(F)F)c4)ccc3C)cn2)c1 [Compound 11, Trifluoroacetate of (S)-N-(2-((3-(2-acrylamido-6-aminohexanamido)phenyl)amino)pyramidin-5-yl)-2-methyl-5-(3-(trifluoromethyl)benzamido)benzamide]",kinact/KI (Btk [3]): 135000 ± 4e+08 M⁻¹ s⁻¹
64.2 ± 4.95 nM,C=CC(=O)N[C@@H](Cc1cnc[nH]1)C(=O)Nc1cccc(Nc2ncc(NC(=O)c3cc(NC(=O)c4cccc(C(F)(F)F)c4)ccc3C)cn2)c1 [Compound 12],–
38 nM and 37.5 nM,C#CCCC(=O)NCCCC[C@H](NC(=O)C=C)C(=O)Nc1cccc(Nc2ncc(NC(=O)c3cc(NC(=O)c4cccc(C(F)(F)F)c4)ccc3C)cn2)c1 [Compound 13],kinact/KI (Btk [3]): 75000 ± 8e+08 M⁻¹ s⁻¹
–,"C=CC(=O)N[C@@H](CCCCNC(=O)CCC1=[N+]2C(=Cc3c(C)cc(C)n3[B-]2(F)F)C=C1)C(=O)Nc1cccc(Nc2ncc(NC(=O)c3cc(NC(=O)c4cccc(C(F)(F)F)c4)ccc3C)cn2)c1 [Compound 14, (S)-3-(3-((5-acrylamido-6-((3-((5-(2-methyl-5-(3-(trifluoromethyl)benzamido)benzamido)pyrimidin-2-yl)amino)phenyl)amino)-6-oxohexyl)amino)-3-oxopropyl)-5,5-difluoro-7,9-dimethyl-5H-dipyrrolo[1,2-c:2',1'-f][1,3,2]diazaborinin-4-ium-5-uide]","Saturation rate of labeling compared with PCI-33380 (Btk [4]; OCI-Ly7 cells (Supplementary Figure S2)): slower saturation rate; Probe concentration at which Btk band intensity reached saturation (Btk [4]; OCI-Ly7 cells, concentration course): 0.5 µM; Incubation time sufficient for labeling (Btk [4]; OCI-Ly7 cells, time course): 2 h; Labeling in Jurkat cells (Jurkat cells): no significant labeling; Incubation time at which fluorescent signals reached a maximum (Btk [5]): 2 h"
